The assay addresses Autotaxin (Homo sapiens (Human), UniProt Q13822). The experiment in a line: Autotaxin LPC Cascade Assay. It is filed as biochemical. To be noted: Autotaxin 5 nM, LPC 100 μM, choline oxidase/HRP/Ampliflu Red fluorescence read-out, 2% DMSO, RT; read-out: IC50 ATX Activity. In short, it runs like this: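 Choline liberated from LPC by autotaxin during 1 h, after a 10-min RT compound preincubation, was converted through choline oxidase/HRP to a fluorescent Ampliflu Red product.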
The IC50 is the point on the concentration scale where inhibition reaches its midpoint. With `CCc1cccc(C(=O)N[C@@H](C(=O)N2CCC3(CC2)C(=O)N(C)CN3c2ccccc2)[C@H](C)OC)c1` [Example 135, 3-Ethyl-N-((2R,3S)-3-methoxy-1-(3-methyl-4-oxo-1-phenyl-1,3,8-triazaspiro[4.5]decan-8-yl)-1-oxobutan-2-yl)benzamide], the IC50 is below 500 nM.

Turning to `CCc1cc(F)cc(C(=O)N[C@@H](C(=O)N2CCC3(CC2)C(=O)N(C)CN3c2ccccc2)[C@H](C)OC)c1` [Example 136, 3-Ethyl-5-fluoro-N-((2R,3S)-3-methoxy-1-(3-methyl-4-oxo-1-phenyl-1,3,8-triazaspiro[4.5]decan-8-yl)-1-oxobutan-2-yl)benzamide], the IC50 was below 500 nM.

Take `Cc1cc(C(=O)N[C@@H](C(=O)N2CCC3(CC2)C(=O)N(C)CN3c2ccccc2)C(C)C)ccn1` [Example 137, (R)-2-Methyl-N-(3-methyl-1-(3-methyl-4-oxo-1-phenyl-1,3,8-triazaspiro[4.5]decan-8-yl)-1-oxobutan-2-yl)isonicotinamide]: the IC50 was at least 1000 nM.

As for `CCc1cccc(C(=O)N[C@@H](C(=O)N2CCC3(CC2)C(=O)N(C)CN3c2ccccc2)C(C)C)c1` [Example 138, (R)-3-Ethyl-N-(3-methyl-1-(3-methyl-4-oxo-1-phenyl-1,3,8-triazaspiro[4.5]decan-8-yl)-1-oxobutan-2-yl)benzamide], the concentration for half-maximal inhibition (IC50) was below 500 nM.

On to `Cc1cc(C(=O)N[C@@H](C(=O)N2CCC3(CC2)C(=O)N(C)CN3c2ccccc2)C(C)C)ccc1F` [Example 139, (R)-4-Fluoro-3-methyl-N-(3-methyl-1-(3-methyl-4-oxo-1-phenyl-1,3,8-triazaspiro[4.5]decan-8-yl)-1-oxobutan-2-yl)benzamide], for which the concentration for half-maximal inhibition (IC50) was below 500 nM.

As for `Cc1cc(F)cc(C(=O)N[C@@H](C(=O)N2CCC3(CC2)C(=O)N(C)CN3c2ccccc2)C(C)C)c1` [Example 140, (R)-3-Fluoro-5-methyl-N-(3-methyl-1-(3-methyl-4-oxo-1-phenyl-1,3,8-triazaspiro[4.5]decan-8-yl)-1-oxobutan-2-yl)benzamide], the concentration for half-maximal inhibition (IC50) was below 500 nM.

As to `Cc1ccc(F)c(C(=O)N[C@@H](C(=O)N2CCC3(CC2)C(=O)N(C)CN3c2ccccc2)C(C)C)c1` [Example 141, (R)-2-Fluoro-5-methyl-N-(3-methyl-1-(3-methyl-4-oxo-1-phenyl-1,3,8-triazaspiro[4.5]decan-8-yl)-1-oxobutan-2-yl)benzamide], the concentration for half-maximal inhibition (IC50) is below 500 nM.

On to `CC(C)[C@@H](NC(=O)c1cccc(C2CC2)c1)C(=O)N1CCC2(CC1)C(=O)N(C)CN2c1ccccc1` [Example 142, (R)-3-Cyclopropyl-N-(3-methyl-1-(3-methyl-4-oxo-1-phenyl-1,3,8-triazaspiro[4.5]decan-8-yl)-1-oxobutan-2-yl)benzamide], for which the IC50 was below 500 nM.

Turning to `CCc1ccc(F)c(C(=O)N[C@@H](C(=O)N2CCC3(CC2)C(=O)N(C)CN3c2ccccc2)C(C)C)c1` [Example 144, (R)-5-Ethyl-2-fluoro-N-(3-methyl-1-(3-methyl-4-oxo-1-phenyl-1,3,8-triazaspiro[4.5]decan-8-yl)-1-oxobutan-2-yl)benzamide], the IC50 was below 500 nM.

Take `Cc1cccc(C(=O)N[C@@H](C(=O)N2CCC3(CC2)C(=O)N(C)CN3c2ccc(C(N)=O)cc2)C(C)C)c1F` [Example 145, (R)—N-(1-(1-(4-Carbamoylphenyl)-3-methyl-4-oxo-1,3,8-triazaspiro[4.5]decan-8-yl)-3-methyl-1-oxobutan-2-yl)-2-fluoro-3-methylbenzamide]: the half-maximal inhibitory concentration (IC50) is 500 to 1000 nM.

Regarding `Cc1cccc(C(=O)N[C@@H](C(=O)N2CCC3(CC2)C(=O)N(C)CN3c2cccc(C(N)=O)c2)C(C)C)c1F` [Example 146, (R)—N-(1-(1-(3-Carbamoylphenyl)-3-methyl-4-oxo-1,3,8-triazaspiro[4.5]decan-8-yl)-3-methyl-1-oxobutan-2-yl)-2-fluoro-3-methylbenzamide], the IC50 is at least 1000 nM.

For `Cc1cccc(C(=O)N[C@@H](C(=O)N2CCC3(CC2)C(=O)N(C)CN3c2ccc(B(O)O)cc2)C(C)C)c1F` [Example 147, (R)-4-(8-(2-(2-Fluoro-3-methylbenzamido)-3-methylbutanoyl)-3-methyl-4-oxo-1,3,8-triazaspiro[4.5]decan-1-yl)phenylboronic Acid], the 50% inhibitory concentration (IC50) was below 500 nM.

For the compound `Cc1cccc(C(=O)N[C@@H](C(=O)N2CCC3(CC2)C(=O)N(C)CN3c2cccc(B(O)O)c2)C(C)C)c1F` [Example 148, (R)-3-(8-(2-(2-Fluoro-3-methylbenzamido)-3-methylbutanoyl)-3-methyl-4-oxo-1,3,8-triazaspiro[4.5]decan-1-yl)phenylboronic Acid], the 50% inhibitory concentration (IC50) is at least 1000 nM.

Turning to `CC(C)[C@@H](NC(=O)c1cc(C(F)(F)F)ccc1F)C(=O)N1CCC2(CC1)C(=O)N(C)CN2c1ccc(C(=O)O)cc1` [Example 149, (R)-4-(8-(2-(2-Fluoro-5-(trifluoromethyl)benzamido)-3-methylbutanoyl)-3-methyl-4-oxo-1,3,8-triazaspiro[4.5]decan-1-yl)benzoic Acid], the half-maximal inhibitory concentration (IC50) was below 500 nM.

`Cc1cccc(C(=O)N[C@@H](C(=O)N2CCC3(CC2)C(=O)N(C)CN3c2ccc(C(=O)O)cc2)C(C)C)c1F` [Example 150, (R)-4-(8-(2-(2-Fluoro-3-methylbenzamido)-3-methylbutanoyl)-3-methyl-4-oxo-1,3,8-triazaspiro[4.5]decan-1-yl)benzoic Acid]: the half-inhibitory concentration (IC50) was below 500 nM.

As for `COc1cc(N2CN(C)C(=O)C23CCN(C(=O)[C@H](NC(=O)c2cc(C(F)(F)F)ccc2F)C(C)C)CC3)ccc1C(=O)O` [Example 151], the half-inhibitory concentration (IC50) is below 500 nM.

For `CCc1ccc(F)c(C(=O)N[C@@H](C(=O)N2CCC3(CC2)C(=O)N(C)CN3c2ccc(C(=O)O)cc2)C(C)C)c1` [Example 152, (R)-4-(8-(2-(5-Ethyl-2-fluorobenzamido)-3-methylbutanoyl)-3-methyl-4-oxo-1,3,8-triazaspiro[4.5]decan-1-yl)benzoic Acid], the concentration for half-maximal inhibition (IC50) is below 500 nM.

On to `CC(C)[C@@H](NC(=O)c1cc(C2CC2)ccc1F)C(=O)N1CCC2(CC1)C(=O)N(C)CN2c1ccc(C(=O)O)cc1` [Example 153, (R)-4-(8-(2-(5-Cyclopropyl-2-fluorobenzamido)-3-methylbutanoyl)-3-methyl-4-oxo-1,3,8-triazaspiro[4.5]decan-1-yl)benzoic Acid], for which the IC50 is below 500 nM.

Consider `CC(C)[C@@H](NC(=O)c1cc(C(F)(F)F)ccc1F)C(=O)N1CCC2(CC1)C(=O)N(C)CN2c1ccc(C(=O)O)c(Cl)c1` [Example 154, (R)-2-Chloro-4-(8-(2-(2-fluoro-5-(trifluoromethyl)benzamido)-3-methylbutanoyl)-3-methyl-4-oxo-1,3,8-triazaspiro[4.5]decan-1-yl)benzoic Acid], for which the IC50 was below 500 nM.

As to `CC(C)[C@@H](NC(=O)c1cc(C(F)(F)F)ccc1F)C(=O)N1CCC2(CC1)C(=O)N(CC1CC1)CN2c1ccc(C(=O)O)cc1` [Example 155, (R)-4-(3-(Cyclopropylmethyl)-8-(2-(2-fluoro-5-(trifluoromethyl)benzamido)-3-methylbutanoyl)-4-oxo-1,3,8-triazaspiro[4.5]decan-1-yl)benzoic Acid], the IC50 was below 500 nM.

With `CN1CN(c2ccc(C(=O)O)cc2)C2(CCN(C(=O)[C@H](NC(=O)c3cc(C(F)(F)F)ccc3F)C3CCCC3)CC2)C1=O` [Example 156, (R)-4-(8-(2-Cyclopentyl-2-(2-fluoro-5-(trifluoromethyl)benzamido)acetyl)-3-methyl-4-oxo-1,3,8-triazaspiro[4.5]decan-1-yl)benzoic Acid], the concentration for half-maximal inhibition (IC50) was below 500 nM.

In the case of `CC(C)[C@@H](NC(=O)c1cc(C(F)(F)F)ccc1F)C(=O)N1CCC2(CC1)C(=O)N(C)CN2c1ccc(C(N)=O)cc1` [Example 157, (R)—N-(1-(1-(4-Carbamoylphenyl)-3-methyl-4-oxo-1,3,8-triazaspiro[4.5]decan-8-yl)-3-methyl-1-oxobutan-2-yl)-2-fluoro-5-(trifluoromethyl)benzamide], the concentration for half-maximal inhibition (IC50) was below 500 nM.

`Cc1cc(N2CN(C)C(=O)C23CCN(C(=O)[C@H](NC(=O)c2cc(C(F)(F)F)ccc2F)C(C)C)CC3)ccc1C(=O)O` [Example 158, (R)-4-(8-(2-(2-Fluoro-5-(trifluoromethyl)benzamido)-3-methylbutanoyl)-3-methy-4-oxo-1,3,8-triazaspiro[4.5]decan-1-yl)-2-methylbenzoic Acid]: the IC50 is at least 1000 nM.

For the compound `CN1CN(c2ccc(C(=O)O)cc2)C2(CCN(C(=O)[C@H](NC(=O)c3cc(C(F)(F)F)ccc3F)C(C)(C)C)CC2)C1=O` [Example 159], the IC50 was at least 1000 nM.

Consider `CC(C)[C@@H](NC(=O)c1cc(Cl)cc(C(F)(F)F)c1)C(=O)N1CCC2(CC1)C(=O)N(C)CN2c1ccc(C(=O)O)cc1` [Example 160, (R)-4-(8-(2-(3-Chloro-5-(trifluoromethyl)benzamido)-3-methylbutanoyl)-3-methyl-4-oxo-1,3,8-triazaspiro[4.5]decan-1-yl)benzoic Acid], for which the IC50 is below 500 nM.

For `Cc1ccc(C(F)(F)F)cc1C(=O)N[C@@H](C(=O)N1CCC2(CC1)C(=O)N(C)CN2c1ccc(C(=O)O)cc1)C(C)C` [Example 161, (R)-4-(3-Methyl-8-(3-methyl-2-(2-methyl-5-(trifluoromethyl)benzamido)butanoyl)-4-oxo-1,3,8-triazaspiro[4.5]decan-1-yl)benzoic Acid], the IC50 lay in the range of 500 to 1000 nM.

With `CC(C)[C@@H](NC(=O)c1cc(OC(F)(F)F)ccc1F)C(=O)N1CCC2(CC1)C(=O)N(C)CN2c1ccc(C(=O)O)cc1` [Example 162, (R)-4-(8-(2-(2-Fluoro-5-(trifluoromethoxy)benzamido)-3-methylbutanoyl)-3-methyl-4-oxo-1,3,8-triazaspiro[4.5]decan-1-yl)benzoic Acid], the half-maximal inhibitory concentration (IC50) is below 500 nM.

On to `COc1ccc(F)c(C(=O)N[C@@H](C(=O)N2CCC3(CC2)C(=O)N(C)CN3c2ccc(C(=O)O)cc2)C(C)C)c1` [Example 163, (R)-4-(8-(2-(2-Fluoro-5-methoxybenzamido)-3-methylbutanoyl)-3-methyl-4-oxo-1,3,8-triazaspiro[4.5]decan-1-yl)benzoic Acid], for which the IC50 is below 500 nM.
